Measured values published in patent US9315544B2, “Method of treating eosinophilia by administering an immunomodulating peptide” (National Tsing Hua University, priority 2012, dated 2016).

Key:
human lung cancer A549 = assay: Transwell migration assay, A549; format: cell-based; conditions: 5 μM CMP pretreatment 30 min, 18 hours
Description: FIG. 10 illustrates Tumor migration inhibition by CMP. A549, H460 and mouse colon cancer cells were incubated with CMP at 37° C. for 30 min before adding to the top chamber of transwell membranes in 24-well dishes at a density of 2×10^4 cells/well. Data represented the mean±S.E. of triplicate samples from a representative experiment. The experiment was repeated at least three times with similar results
Cancer cell inhibition by CMP was performed in a 24-well Transwell chamber consisting of a cell culture insert (6.4 mm diameter, 8-1 μm pore polyethylene tetraphtalate membrane, [Becton Dickinson]) set in each well of a 24-well companion plate (Becton Dickinson). Briefly, 3×10^4 cancer cells were suspended and pretreated with 5 and 12.5 μM CMP for 30 min in a total volume of 200 μL. Cell suspensions were inoculated into the upper chamber of an insert, 5% fetal bovine serum (FBS) in medium as a chemoattractant was added to the plate well in the bottom chamber, and incubated for 18 hours in a humidified incubator at 37° C. with 5% CO2. The non-migratory cells on the upper membrane surface were removed with a cotton swab, and the migratory cells attached to the lower membrane surface were fixed with 4% paraformaldehyde and stained with 0.2% crystal violet. The number of migrated cells was counted in four randomly selected high power fields under microscope. […]

[1] = tested on: mite-induced airway hyperresponsiveness; assay: Mite-induced airway hyperresponsiveness, pause enhancement (Penh) by whole-body plethysmography; format: in vivo, BALB/c mouse
Source text: FIG. 4 illustrates experimental design. All groups except control group were immunized with mite crude extract allergen on days 1 and 8, then mite crude extract allergen intratracheally on day 15 in all mite treated group, BALB/c mouse were divided into six groups (1) control group (PBS), (2) mites delivered intratracheally (mIT, mite on day 15) alone, (3) CMP intranasal (eIN, CMP on days 1 to 22) alone, (4) preventive-treatment group (eIN+mIT, CMP on days 1 to 14, mite on day 15) (5) therapy-treatment group (mIT+eIN, mite on day 15, CMP on days 15 to 22), and (6) preventive- and therapeutic-treatment group (eIN+mIT+eIN, CMP on days 1 to 22, mite on day 15).
FIG. 5 illustrates inhibitory effect of CMP on mite-induced airway hyperresponsiveness. The effect of methacholine (MCh) on pause enhancement (Penh) in mouse exposed to CMP in the presence and absence of mite proteins. Penh was measured in all six treatment groups after stimulation with 6.25, 12.5, or 25 mg/ml MCh for 1 min. The values were presented as a ratio with respect to the baseline Penh (before MCh stimulation) for each group. Each result was expressed as the mean±S.D., n=4. **, P<0.01. ***, P<0.001. […]
Airway responsiveness was measured in mouse on day 22 (i.e., 1 hour after the last challenge) in conscious, spontaneously breathing mouse using a whole-body plethysmography system (Buxco, Wilmington, N.C., USA) as described before (Maeda T, et al, Eur J Biochem 2002, 269, 307-316). […] The chamber-pressure-time wave was continuously measured via a transducer connected to a computer data acquisition system. After a baseline Penh reading for >3 min, mice were serially exposed to increasing concentrations of nebulized methacholine (MCh) (0, 6.25, 12.5, and 25 mg/ml; Sigma, St Louis, Mo., USA) in PBS for 1 min by inhalation. Penh values, which are measured as changes in enhanced pause, tidal volume, and breathing frequency (breaths/minute) for the first 3 min after the end of MCh nebulization, were averaged and used to compare responses among all six-treatment groups. […]

With NYRWRCKNQN (CMP) the “decrease of migration activity” value (human lung cancer A549) was 60%, the “AHR, response to increasing dose of inhaled methacholine” value ([1]; CMP intranasal, eIN+mIT, mIT+eIN and eIN+mIT+eIN groups) was “significantly decrease” and the “Penh stimulation compared with mite group” value ([1]; eIN+mIT and mIT+eIN groups, 25 mg/ml MCh) was “lower stimulation”. For the same sequence, the “Penh/baseline ratio change of mIT group compared with CMP group” value ([1]; mIT vs eIN+mIT+eIN group, 12.5 and 25 mg/ml MCh) was “much higher”.
